# Test results as given in paper PMC6496074, “The Evolution of Azole Resistance in Candida albicans Sterol 14α-Demethylase (CYP51) through Incremental Amino Acid Substitutions” (Antimicrobial Agents and Chemotherapy, 2019).
# “And” between values parts separate entries of the source, which are not always exact repeats. Equal entries are not always repeated.
# Experiments:
# Assay in all cases: CYP51 reconstitution assay
# Type in all cases: biochemical
# CaCYP51 D278N = target: T1, CaCYP51 D278N (Candida albicans, UniProt P10613, D278N)
# T1 construct: made in house; host or cells: E. coli DH5α (pCWori+)
# Experimental: (§1) Azole antifungal agents were added in 2.5 μl dimethyl sulfoxide, followed by 10 min of incubation at 37°C prior to assay initiation with 4 mM β-NADPH-Na4. The samples were then shaken for 15 min at 37°C. Sterol metabolites were recovered by extraction with ethyl acetate, followed by derivatization with 0.1 ml N,O-bis(trimethylsilyl)trifluoroacetamide (BSTFA)–trimethylchlorosilane (TMCS) (99:1) and 0.3 ml anhydrous pyridine (2 h at 80°C), prior to analysis by gas chromatography-mass spectrometry (GC-MS) ([52]). IC50 determinations were performed in duplicate.
# CaCYP51 D278N+G464S = target: T2, CaCYP51 D278N+G464S (Candida albicans, UniProt P10613, D278N/G464S)
# T2 construct: made in house; host or cells: E. coli DH5α (pCWori+)
# Experimental: as §1
# CaCYP51 F126V = target: T3, CaCYP51 F126V (Candida albicans, UniProt P10613, F126V)
# T3 construct: made in house; host or cells: E. coli DH5α (pCWori+)
# Experimental: as §1
# CaCYP51 F145L = target: T4, CaCYP51 F145L (Candida albicans, UniProt P10613, F145L)
# T4 construct: made in house; host or cells: E. coli DH5α (pCWori+)
# Experimental: as §1
# CaCYP51 F449Y = target: T5, CaCYP51 F449Y (Candida albicans, UniProt P10613, F449Y)
# T5 construct: made in house; host or cells: E. coli DH5α (pCWori+)
# Experimental: as §1
# CaCYP51 G307S = target: T6, CaCYP51 G307S (Candida albicans, UniProt P10613, G307S)
# T6 construct: made in house; host or cells: E. coli DH5α (pCWori+)
# Experimental: as §1
# CaCYP51 G307S+G450E = target: T7, CaCYP51 G307S+G450E (Candida albicans, UniProt P10613, G307S/G450E)
# T7 construct: made in house; host or cells: E. coli DH5α (pCWori+)
# Experimental: as §1
# CaCYP51 G448E = target: T8, CaCYP51 G448E (Candida albicans, UniProt P10613, G448E)
# T8 construct: made in house; host or cells: E. coli DH5α (pCWori+)
# Experimental: as §1
# CaCYP51 G450E = target: T9, CaCYP51 G450E (Candida albicans, UniProt P10613, G450E)
# T9 construct: made in house; host or cells: E. coli DH5α (pCWori+)
# Experimental: as §1
# CaCYP51 G464S = target: T10, CaCYP51 G464S (Candida albicans, UniProt P10613, G464S)
# T10 construct: made in house; host or cells: E. coli DH5α (pCWori+)
# Experimental: as §1
# CaCYP51 I471T = target: T11, CaCYP51 I471T (Candida albicans, UniProt P10613, I471T)
# T11 construct: made in house; host or cells: E. coli DH5α (pCWori+)
# Experimental: as §1
# CaCYP51 K143R = target: T12, CaCYP51 K143R (Candida albicans, UniProt P10613, K143R); conditions: mean ± SD, duplicate
# T12 construct: made in house; host or cells: E. coli DH5α (pCWori+)
# Experimental: as §1
# CaCYP51 P230L = target: T13, CaCYP51 P230L (Candida albicans, UniProt P10613, P230L)
# T13 construct: made in house; host or cells: E. coli DH5α (pCWori+)
# Experimental: as §1
# CaCYP51 Q474K = target: T14, CaCYP51 Q474K (Candida albicans, UniProt P10613, Q474K)
# T14 construct: made in house; host or cells: E. coli DH5α (pCWori+)
# Experimental: as §1
# CaCYP51 R467K = target: T15, CaCYP51 R467K (Candida albicans, UniProt P10613, R467K)
# T15 construct: made in house; host or cells: E. coli DH5α (pCWori+)
# Experimental: as §1
# CaCYP51 S279F = target: T16, CaCYP51 S279F (Candida albicans, UniProt P10613, S279F)
# T16 construct: made in house; host or cells: E. coli DH5α (pCWori+)
# Experimental: as §1
# CaCYP51 S405F = target: T17, CaCYP51 S405F (Candida albicans, UniProt P10613, S405F)
# T17 construct: made in house; host or cells: E. coli DH5α (pCWori+)
# Experimental: as §1
# CaCYP51 V437I = target: T18, CaCYP51 V437I (Candida albicans, UniProt P10613, V437I)
# T18 construct: made in house; host or cells: E. coli DH5α (pCWori+)
# Experimental: as §1
# CaCYP51 V456I = target: T19, CaCYP51 V456I (Candida albicans, UniProt P10613, V456I)
# T19 construct: made in house; host or cells: E. coli DH5α (pCWori+)
# Experimental: as §1
# CaCYP51 V488I = target: T20, CaCYP51 V488I (Candida albicans, UniProt P10613, V488I); conditions: mean ± SD, duplicate
# T20 construct: made in house; host or cells: E. coli DH5α (pCWori+)
# Experimental: as §1
# CaCYP51 Wild type = target: T21, CaCYP51 Wild type (Candida albicans, UniProt P10613); conditions: Wild type
# T21 construct: made in house; host or cells: E. coli DH5α (pCWori+)
# Experimental: as §1
# CaCYP51 Y118A = target: T22, CaCYP51 Y118A (Candida albicans, UniProt P10613, Y118A)
# T22 construct: made in house; host or cells: E. coli DH5α (pCWori+)
# Experimental: as §1
# CaCYP51 Y132F = target: T23, CaCYP51 Y132F (Candida albicans, UniProt P10613, Y132F)
# T23 construct: made in house; host or cells: E. coli DH5α (pCWori+)
# Experimental: as §1
# CaCYP51 Y132H = target: T24, CaCYP51 Y132H (Candida albicans, UniProt P10613, Y132H); conditions: mean ± SD, duplicate
# T24 construct: made in house; host or cells: E. coli DH5α (pCWori+)
# Experimental: as §1
# CaCYP51 Y132H+K143R = target: T25, CaCYP51 Y132H+K143R (Candida albicans, UniProt P10613, K143R/Y132H)
# T25 construct: made in house; host or cells: E. coli DH5α (pCWori+)
# Experimental: as §1
# CaCYP51 Y257H = target: T26, CaCYP51 Y257H (Candida albicans, UniProt P10613, Y257H)
# T26 construct: made in house; host or cells: E. coli DH5α (pCWori+)
# Experimental: as §1
# CaCYP51 Y447H = target: T27, CaCYP51 Y447H (Candida albicans, UniProt P10613, Y447H)
# T27 construct: made in house; host or cells: E. coli DH5α (pCWori+)
# Experimental: as §1
# [1] = 0.25 h, 4 μM triazole, % of activity without triazole, read-out: Residual CYP51 activity (%) ± SD
# T21 sequence (P10613 whole entry, looked up, natural form): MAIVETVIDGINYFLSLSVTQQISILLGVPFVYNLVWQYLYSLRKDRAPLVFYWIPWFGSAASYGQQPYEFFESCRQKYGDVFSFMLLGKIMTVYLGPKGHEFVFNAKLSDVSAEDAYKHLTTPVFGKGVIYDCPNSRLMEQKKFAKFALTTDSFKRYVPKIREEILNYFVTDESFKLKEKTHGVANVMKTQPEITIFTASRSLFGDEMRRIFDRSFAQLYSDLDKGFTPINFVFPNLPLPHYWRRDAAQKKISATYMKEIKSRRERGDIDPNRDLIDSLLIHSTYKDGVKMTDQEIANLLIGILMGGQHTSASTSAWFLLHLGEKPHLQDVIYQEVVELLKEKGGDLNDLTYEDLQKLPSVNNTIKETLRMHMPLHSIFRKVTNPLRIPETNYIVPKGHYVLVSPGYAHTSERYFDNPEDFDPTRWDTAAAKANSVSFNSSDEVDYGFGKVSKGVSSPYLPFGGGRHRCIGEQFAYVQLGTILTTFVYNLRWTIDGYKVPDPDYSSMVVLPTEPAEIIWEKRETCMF
# T3 sequence (P10613 whole entry, looked up, stated change not applied): as the sequence (P10613 whole entry, looked up, natural form) above
# T15 sequence (P10613 whole entry, looked up, stated change not applied): as the sequence (P10613 whole entry, looked up, natural form) above
# T19 sequence (P10613 whole entry, looked up, stated change not applied): as the sequence (P10613 whole entry, looked up, natural form) above
# T23 sequence (P10613 whole entry, looked up, stated change not applied): as the sequence (P10613 whole entry, looked up, natural form) above
# T14 sequence (P10613 whole entry, looked up, stated change not applied): as the sequence (P10613 whole entry, looked up, natural form) above
# T10 sequence (P10613 whole entry, looked up, stated change not applied): as the sequence (P10613 whole entry, looked up, natural form) above
# T26 sequence (P10613 whole entry, looked up, stated change not applied): as the sequence (P10613 whole entry, looked up, natural form) above
# T9 sequence (P10613 whole entry, looked up, stated change not applied): as the sequence (P10613 whole entry, looked up, natural form) above
smiles,measurement,setting,value
"CCC(C)n1ncn(-c2ccc(N3CCN(c4ccc(OCC5COC(Cn6cncn6)(c6ccc(Cl)cc6Cl)O5)cc4)CC3)cc2)c1=O (stereo not drawn) [Itraconazole, itraconazole]",remaining activity at 4 µM,CaCYP51 D278N; [1],3 ± 0.19%
same,IC50,"CaCYP51 D278N; mean ± SD, duplicate",545 ± 44 nM
same,remaining activity at 4 µM,CaCYP51 D278N+G464S; [1],3.19 ± 0.46%
same,IC50,"CaCYP51 D278N+G464S; mean ± SD, duplicate",403 ± 11 nM
same,remaining activity at 4 µM,CaCYP51 F126V; [1],0.22 ± 0.05%
same,IC50,"CaCYP51 F126V; mean ± SD, duplicate",206 ± 9 nM
same,remaining activity at 4 µM,CaCYP51 F145L; [1],1.99 ± 0.04%
same,IC50,"CaCYP51 F145L; mean ± SD, duplicate",300 ± 13 nM
same,remaining activity at 4 µM,CaCYP51 F449Y; [1],0.84 ± 0.57%
same,IC50,"CaCYP51 F449Y; mean ± SD, duplicate",222 ± 11 nM
same,remaining activity at 4 µM,CaCYP51 G307S; [1],0.53 ± 0.21%
same,IC50,"CaCYP51 G307S; mean ± SD, duplicate",225 ± 7 nM
same,remaining activity at 4 µM,CaCYP51 G307S+G450E; [1],0.2 ± 0.04%
same,IC50,"CaCYP51 G307S+G450E; mean ± SD, duplicate",318 ± 17 nM
same,remaining activity at 4 µM,CaCYP51 G448E; [1],1.75 ± 0.26%
same,IC50,"CaCYP51 G448E; mean ± SD, duplicate",238 ± 13 nM
same,remaining activity at 4 µM,CaCYP51 G450E; [1],7.66 ± 0.54%
same,IC50,"CaCYP51 G450E; mean ± SD, duplicate",458 ± 70 nM
same,remaining activity at 4 µM,CaCYP51 G464S; [1],0.54 ± 0.11%
same,IC50,"CaCYP51 G464S; mean ± SD, duplicate",282 ± 6 nM
same,remaining activity at 4 µM,CaCYP51 I471T; [1],1.21 ± 0.01%
same,IC50,"CaCYP51 I471T; mean ± SD, duplicate",218 ± 2 nM
same,IC50,CaCYP51 K143R,450 ± 16 nM
same,remaining activity at 4 µM,CaCYP51 P230L; [1],0.06 ± 0.01%
same,IC50,"CaCYP51 P230L; mean ± SD, duplicate",265 ± 38 nM
same,remaining activity at 4 µM,CaCYP51 Q474K; [1],0.49 ± 0.04%
same,IC50,"CaCYP51 Q474K; mean ± SD, duplicate",246 ± 6 nM
same,remaining activity at 4 µM,CaCYP51 R467K; [1],0.45 ± 0.17%
same,IC50,"CaCYP51 R467K; mean ± SD, duplicate",235 ± 18 nM
same,remaining activity at 4 µM,CaCYP51 S279F; [1],5.97 ± 0.35%
same,IC50,"CaCYP51 S279F; mean ± SD, duplicate",569 ± 121 nM
same,remaining activity at 4 µM,CaCYP51 S405F; [1],2.73 ± 0.13%
same,IC50,"CaCYP51 S405F; mean ± SD, duplicate",350 ± 19 nM
same,remaining activity at 4 µM,CaCYP51 V437I; [1],0.13 ± 0.02%
same,IC50,"CaCYP51 V437I; mean ± SD, duplicate",293 ± 22 nM
same,remaining activity at 4 µM,CaCYP51 V456I; [1],3.21 ± 0.07%
same,IC50,"CaCYP51 V456I; mean ± SD, duplicate",603 ± 2 nM
same,IC50,CaCYP51 V488I,449 ± 16 nM
same,remaining activity at 4 µM,CaCYP51 Wild type; [1],0.03 ± 0.02%
same,IC50,"CaCYP51 Wild type; mean ± SD, duplicate, read-out: IC50",390 nM and 389 nM
same,remaining activity at 4 µM,CaCYP51 Y118A; [1],1.3 ± 0.59%
same,IC50,"CaCYP51 Y118A; mean ± SD, duplicate",170 ± 16 nM
same,remaining activity at 4 µM,CaCYP51 Y132F; [1],0.19 ± 0.04%
same,IC50,"CaCYP51 Y132F; mean ± SD, duplicate",309 ± 3 nM
same,IC50,CaCYP51 Y132H,150 ± 28 nM
same,remaining activity at 4 µM,CaCYP51 Y132H+K143R; [1],0.7 ± 0.03%
same,IC50,"CaCYP51 Y132H+K143R; mean ± SD, duplicate",237 ± 7 nM
same,remaining activity at 4 µM,CaCYP51 Y257H; [1],1.37 ± 0.28%
same,IC50,"CaCYP51 Y257H; mean ± SD, duplicate",336 ± 14 nM
same,remaining activity at 4 µM,CaCYP51 Y447H; [1],1.45 ± 0.06%
same,IC50,"CaCYP51 Y447H; mean ± SD, duplicate",299 ± 39 nM
